Measurements as given in ChEMBL document CHEMBL1141387, “Molecular-docking-guided design, synthesis, and biologic evaluation of radioiodinated quinazolinone prodrugs” (J Med Chem, 2007).
Values after ≈ are worked out from the molar mass of the structure shown.

Experiments:
[1] = PLAP-mediated conversion of prodrug to drug; assay type: ADME
[2] = Solubility in phosphate buffer by radiotracer analysis method; assay type: physicochemical
[3] = Aqueous solubility by radiotracer analysis method; assay type: physicochemical; settings: buffer

SMILES | Activity [1] | solubility [2] [µg/mL] | solubility [3] [µg/mL]
N.N.N.N.O=P(O)(O)Oc1ccc(-c2nc(O)c3cc([127I])ccc3n2)c(OP(=O)(O)O)c1 | Active | 4350 | –
O=c1[nH]c(-c2ccc(O)cc2O)nc2ccc([127I])cc12 | – | – | 0.00968 (≈ 0.0255 µM)
N.N.N.N.O=c1[nH]c(-c2ccc(OP(=O)(O)O)cc2OP(=O)(O)O)nc2ccc([125I])cc12 | Active | – | –
